From US9775844B2, “Heterocyclic compounds and uses thereof” (Infinity Pharmaceuticals, Inc., priority 2014, dated 2017)
Read-outs that look alike come from different tables or passages of the source.

Legend:
[1] = system: TMD8 cell line; test: Combination isobologram in TMD8 cell line; assay type: cell-based; conditions: combination of Compound AA and Compound BB
[2] = system: human T cells; test: Concanavalin A-induced model for activation of human T cells (IFN-γ); assay type: cell-based; conditions: at isoform selective concentrations
[3] = Cellular membrane permeability; assay type: in vitro ADME
Description: These properties indicate the compound's suitability for in vivo administration.

[4] = Mouse pharmacokinetics, oral single and repeat dose; conditions: in vivo, 10 mg/kg in NMP solution, read-out: Mouse PK AUClast @ 10 mg/kg in NMP solution
[5] = Oral PK in the rat LPS studies (free plasma concentration); assay type: in vivo; conditions: plasma, read-out: Free Plasma Conc
Method: This study also includes assessment of the exposure to the compounds in plasma and lung tissues.
Ref C is budesonide p.o. The compound was administered p.o. and about 1 hour later, LPS was administered intra-tracheally and plasma was collected. After about 5 hours, plasma and bronchoalveolar lavage samples were collected.

[6] = system: phospho-AKT in monocytes; test: Ex vivo whole blood stimulation of phospho-AKT in monocytes of LLC-bearing mice; conditions: LLC-bearing mice treated with compound
[7] = system: monocytic iMCs in CT26 subcutaneous tumors; test: Flow cytometry of tumor-associated myeloid cells, CT26 subcutaneous tumors; assay type: in vivo, mouse; conditions: FIG. 38B
Method: (§1) Flow cytometry was performed to obtain a more extensive cellular subset analysis. In particular, the study examined T cell vs. Myeloid cells, Myeloid cell subsets, Regulatory vs. effector T cells, and Tumor markers vs. WBC (e.g., PD-L1 expression on tumor).
(§2) Different populations of tumor-associated myeloid cells can be identified by flow cytometry, e.g., monocytic immature myeloid cells (iMC),Granulocytic iMCs/Neutrophils, Tumor Associated Macrophages (TAMs), and Granulocytic MDSCs. The different populations, and panels for detecting MDSCs, are described in Cancer Discovery 2011; 1:54-67. Tumors may vary in their myeloid cell composition.

[8] = Pharmacokinetics in rat, oral; assay type: in vivo
Description: (§3) Compound BB's oral exposure is high in rat, dog and monkey. Good oral bioavailability and low clearance in rodent and non-rodent animal species results in high oral exposure.

[9] = system: suppression of spleen T cell proliferation by CT26 tumor cells; test: Ex vivo T cell proliferation assay with CT26 tumor cells (CFSE); assay type: cell-based, mouse; conditions: tumors from treated mice
Method: The duration of the study was 1 week under treatment. 5-6 week old female, Balb/c mice (Jackson Labs) implanted subcutaneously with 5×10^5 CT26 cells in 100 μl PBS. CT26 cells were cultured in RPMI supplemented with 10% FBS. Dosing commenced when tumors reached an average volume of 500-600 mm^3
For group 3 (αPD-L1), the mice were dosed once, IP, 200 ug (200 uL from 1 mg/ml stock).
Mice were monitored daily for adverse clinical effects. Body weights and tumor luminescent were measured two times per week. At the end of the study, tumors were harvested and cut into 3 parts; one piece for CTL killing assay, one piece for CSFE proliferation assay and one piece (split into two) for OCT/FFPE.
Spleens from 3 vehicle treated tumor bearing mice were physically dissociated in T cell media and passed through a 70 micron filter. After red cell lysis, the cells were pooled, brought up in PBS and stained with CFSE (invitrogen). After washing, these cells were brought up in 20 ml T cell media. Half the cells received Dynal mouse activator beads (CD3/CD28 crosslinking at a 1:1 […]). CD3/CD28 beads induce proliferation in splenocytes from tumor bearing mouse (data not shown).
The cells were treated with red cell lysis buffer, washed, and re-suspended in 10 ml T cell media. 2 mls of the each tumor cell suspension were plated into each of two 12 well plates. […]

[10] = Pharmacokinetics in monkey, oral; assay type: in vivo; conditions: 5 mg/kg oral
Description: as §3

[11] = Stability in simulated gastric fluid; assay type: physicochemical; conditions: 38°
Description: The phyiscochemical properties of Compound BB are drug-like, and suitable for use of the compound as a drug.

[12] = system: M1 macrophage differentiation; test: M1 macrophage differentiation; assay type: cell-based
Method: A similar experiment was performed on M1 differentiation.

[13] = system: 4T1 breast cancer; test: Subcutaneous 4T1 breast cancer model; assay type: in vivo
[14] = system: tumor; test: Tumor growth, Compound BB alone and co-administered with 5-FU (FIG. 35); assay type: in vivo
[15] = system: tumor-associated myeloid cells in LLC tumor brei; test: Flow cytometry of tumor-associated myeloid cells, LLC tumor brei model; assay type: in vivo, mouse
Method: as §1, §2

[16] = system: Lewis Lung Carcinoma; test: Lewis Lung Carcinoma model; assay type: in vivo, mice
[17] = system: phospho-AKT in T cells; test: Ex vivo whole blood stimulation of phospho-AKT in T cells of LLC-bearing mice; conditions: LLC-bearing mice treated with compound
[18] = system: CT26 colon cancer; test: CT26 colon cancer model; assay type: in vivo, mouse
[19] = Pharmacokinetics in dog, oral; assay type: in vivo; conditions: 5 mg/kg oral
Description: as §3

[20] = GSH Adduct Formation; assay type: in vitro ADME

## C[C@H](NC(=O)c1c(N)nn2cccnc12)c1cc2cccc(C#Cc3cnn(C)c3)c2c(=O)n1-c1ccccc1 [Compound BB]
[1]
  combination effect (isobologram): synergistic effect
[2]
  effect on IFN-γ: little to no effect
[3]
  cellular membrane permeability: high cellular membrane permeability
[3]; 10 uM
  Papp [10−6 cm/s] @ 10 uM: High
[4]
  AUC(0-t): 83700 ng·h/mL
[5]; oral, p.o. 0.5 mg/kg, 1.5h (time of LPS challenge)
  concentration at 1.5 h: 2.1 nM
[5]; oral, p.o. 0.5 mg/kg, 5.5h (approximately 4 hours post LPS challenge)
  concentration at […]: 2.6 nM
[5]; po, p.o. 1.5 mg/kg, 1.5h
  concentration at 1.5 h: 5.2 nM
[5]; po, p.o. 1.5 mg/kg, 5.5h
  concentration at […]: 5.4 nM
[5]; po, p.o. 5 mg/kg, 1.5h
  concentration at 1.5 h: 22.6 nM
[5]; po, p.o. 5 mg/kg, 5.5h
  concentration at […]: 24.7 nM
[6]
  ex vivo whole blood stimulation of phospho-AKT in monocytes: inhibits
[7]
  monocytic iMCs: decreased
[8]; rat, 7.5 mg/kg oral
  oral exposure (plasma concentrations within 24 hours): high
[8]; rats, oral 10, 25, and 100 mg/kg
  dose-exposure proportionality (AUC 0-last): good dose-exposure proportionality
[9]
  suppression of T cell proliferation by cells derived from CT26 mouse tumors: can release the suppression
[10]
  oral exposure (plasma concentrations within 24 hours): high
[11]
  stability in simulated gastric fluid: > 4 h
[12]
  M1 macrophage differentiation: did not have an observable effect
[13]
  single agent activity: demonstrated single agent activity
[13]; co-administration with docetaxel, paclitaxel, or 5-FU
  tumor growth: achieved a further reduction in tumor growth
[14]; Compound BB alone
  tumor growth: achieves a reduction in tumor growth
[14]; co-administration of Compound BB and 5-FU
  tumor growth: achieves a further reduction
[15]; FIG. 38A
  number of infiltrating TAMs: decreased
[15]; FIG. 39
  CD206 staining (M2 polarized suppressive macrophages): reduced
[16]
  single agent activity: demonstrates single agent activity
[17]
  ex vivo whole blood stimulation of phospho-AKT in T cells: inhibits
[18]; CT26 colon cancer model
  MDSC expansion after cyclophosphamide treatment: decreased
[18]; CT26 subcutaneous tumors
  monocytic iMCs: decreased
[19]
  oral exposure (plasma concentrations within 24 hours): high
[20]
  GSH Adduct Formation: Neg
